This is an account of results in ChEMBL document CHEMBL1201862, “PubChem BioAssay data set” (2004).

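Grown in 96-well plates, cells were treated for 48 hours with each compound at five concentrations. Insufficient inhibition: endpoint recorded as highest concentration tested. GI50 marks 50% less growth.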 Activity calls are given as the source filed them. No stated cut-off is given here; in the data, active = GI50 up to about 1.1 µM and inactive = higher.

Test systems include A549; BT-549; HOP-62; HOP-92; HT-29; IGROV-1; K562; LOX IMVI; MDA-N; Malme-3M; NCI-H460; OVCAR-8; PC-3; RPMI-8226; SK-MEL-2; SK-OV-3; SNB-19; SW-620; U-251.
Experiment in all cases: inhibition of tumour cell growth, NCI panel, 48 h

As for `O=C1/C(=C\c2ccccc2)CN(C(=O)CCN2CCCCC2)C/C1=C/c1ccccc1`, the GI50 in the test with A549 was 3.73 µM (inactive); in the test on BT-549 it was 0.553 µM (active); in the test with HOP-62 it was 12.9 µM (inactive); with HOP-92 it was 3.55 µM (inactive); in the test with HT-29, 0.443 µM (active); in the test on IGROV-1, 1.95 µM (inactive). Moreover, the GI50 is 0.179 µM (active) in the test on K562; 0.283 µM (active) in the test with LOX IMVI; 1.19 µM (inactive) in the test on MDA-N; 2.25 µM (inactive) in the test with Malme-3M; 2.35 µM (inactive) with NCI-H460; 0.869 µM (active) in the test with OVCAR-8. In addition, the GI50 was 1.24 µM (inactive) in the test with PC-3; 0.0832 µM (active) in the test on RPMI-8226; 2 µM (inactive) with SK-MEL-2; 4.01 µM (inactive) in the test on SK-OV-3; 1.84 µM (inactive) with SNB-19; 0.167 µM (active) with SW-620. Besides, the GI50 in the test with U-251 is 0.632 µM (active).

Turning to `CSc1cc(Br)ccc1-n1c(C(=O)c2ccccc2)c(SC)n(-c2ccccc2)c1=O`, the GI50 was > 100 µM (inactive) in the test on A549; > 100 µM (inactive) in the test with BT-549; > 100 µM (inactive) in the test on HOP-62; > 100 µM (inactive) with HOP-92; 52.8 µM (inactive) in the test on HT-29; > 100 µM (inactive) in the test with IGROV-1. The GI50 in the test on K562 was 4.81 µM (inactive); in the test with LOX IMVI, > 100 µM (inactive); in the test with MDA-N it was 18.5 µM (inactive); in the test with NCI-H460 it was 50.9 µM (inactive); in the test on OVCAR-8, > 100 µM (inactive); in the test with PC-3 it was 5.53 µM (inactive). The GI50 in the test with SK-OV-3 is > 100 µM (inactive); with SNB-19 it was > 100 µM (inactive); in the test with SW-620 it was 19 µM (inactive); in the test on U-251, > 100 µM (inactive).

In the case of `CCSC1SC(c2ccccc2)(c2ccccc2)c2ccccc21` (stereo unspecified), the GI50 in the test with A549 is 46 µM (inactive); in the test on BT-549 it was 39.8 µM (inactive); with HOP-62, > 100 µM (inactive); with HOP-92, 30.8 µM (inactive); in the test on HT-29 it was 34.6 µM (inactive); in the test with IGROV-1 it was 75.3 µM (inactive). The GI50 in the test with K562 was 62.4 µM (inactive); with LOX IMVI, 45.1 µM (inactive); with MDA-N it was 35.9 µM (inactive); in the test with Malme-3M, 34.1 µM (inactive); in the test on NCI-H460 it was 36.9 µM (inactive); in the test on OVCAR-8, 64.7 µM (inactive). For the same compound, the GI50 is 39.4 µM (inactive) in the test with PC-3; 32.8 µM (inactive) in the test with RPMI-8226; > 100 µM (inactive) in the test on SK-OV-3; > 100 µM (inactive) with SNB-19; 54.8 µM (inactive) in the test on SW-620; 92.3 µM (inactive) in the test on U-251.

On to `COc1ccc(C2=Nc3c(nc(SC)[nH]c3=O)NC(c3ccccc3)C2)cc1` (stereo unspecified), for which the GI50 with A549 is 24 µM (inactive); in the test with BT-549, 24.8 µM (inactive); with HOP-62, 35.4 µM (inactive); in the test on HOP-92, 46.3 µM (inactive); in the test on HT-29, 21.8 µM (inactive); in the test with IGROV-1, 19.5 µM (inactive). The GI50 in the test on K562 was 25.1 µM (inactive); in the test with LOX IMVI, 30.5 µM (inactive); with MDA-N, 16.9 µM (inactive); with Malme-3M it was 37.1 µM (inactive); in the test on OVCAR-8, 19.4 µM (inactive); in the test with PC-3, 33.7 µM (inactive). Also, the GI50 was 27.2 µM (inactive) in the test with RPMI-8226; 29.1 µM (inactive) in the test with SK-MEL-2; 18.1 µM (inactive) in the test on SK-OV-3; 23.8 µM (inactive) in the test with SNB-19; 44.9 µM (inactive) with SW-620; 18.9 µM (inactive) in the test with U-251.
